Molecular target: T1, recombinant human EP-2 receptor (Homo sapiens, UniProt P43116)
T1 construct: cell line stably transfected with full length cDNA encoding human Prostaglandin E2 was established; expressed in transfected cells; host or cells: CHO (Chinese hamster ovary) cells, stably transfected
Assay: in vitro antagonist potency against recombinant human EP-2 receptor in CHO cells (cAMP, Protocol 1)
Type: cell-based
Details: functional Ki by Cheng-Prusoff from IC50; CHO cells stimulated with PGE2 (5 nM); cAMP readout; read-out: EP2 Ki
Text: 1.0 Measurement of in vitro Antagonist Potency (IC50) of Compounds Against Recombinant Human Prostaglandin E2 Receptor in CHO Cells
The prostaglandin E2 (EP-2) receptor is Gs coupled and agonism of the receptor by PGE2 results in activation of intracellular adenylate cyclase enzymes that synthesise the second messenger signalling molecule, adenosine 3′,5′-cyclic monophosphate (cAMP). […] Decreases in cAMP levels following treatment of stimulated recombinant EP-2 cells with potential antagonist compounds were measured and potency (IC50) calculated as follows. A Chinese hamster ovary (CHO) cell line stably transfected with full length cDNA encoding human Prostaglandin E2 was established using standard molecular biology methods. Test compounds were dissolved in dimethyl sulphoxide (DMSO) at 4 mM. 11 point half log unit increment dilution series of test compound were prepared in DMSO then diluted 1 in 40 in a buffer comprised of phosphate buffered saline (PBS) and 0.05% pluronic F-127 surfactant. Freshly cultured cells at 80-90% confluence were harvested and re-suspended in 90% growth media/10% DMSO. The cells were frozen using a planar freezer and stored in frozen aliquots in cryovials in liquid nitrogen until the day of the experiment. A vial of cells was defrosted in a 37° C. water bath for 2 min, then transferred to 10 ml of Dulbecco's Modified Eagle's Medium (DMEM). The cells were then centrifuged for 5 min at 1000 g and the pellet re-suspended at 1,000,000 cells/ml in DMEM. 5,000 cells (5 ul) were added to 5 ul of the compound dilution series in a 384 well assay plate and pre-incubated for 30 min at 37° C. 5 ul of agonist (15 nM PGE2 in PBS to give 5 nM FAC) was added and plates further incubated for 90 min at 37° C. The relative cAMP concentration in each well was then measured using a ? -galactosidase enzyme fragment complementation method purchased in kit form as the Discoverx cAMP II kit from GE Healthcare, UK. […] Sigmoidal curves were fitted to plots of log10 inhibitor concentration vs. percent effect. IC50 estimates were determined as the concentration of test compound giving an effect half way between the bottom and top asymptotes of the sigmoidal dose response curve. Each experiment included an IC50 determination for the literature compound as a standard to track assay consistency and allow fair comparison between values obtained in different experiments. The EC50 of PGE2 is used in combination with the ligand concentration in the assay to determine Ki values for antagonist dose responses using the Cheng-Prusoff equation. Consequently an agonist dose response curve is carried out for each experiment using the same incubation as the antagonist plate.

T1 sequence (P43116 whole entry): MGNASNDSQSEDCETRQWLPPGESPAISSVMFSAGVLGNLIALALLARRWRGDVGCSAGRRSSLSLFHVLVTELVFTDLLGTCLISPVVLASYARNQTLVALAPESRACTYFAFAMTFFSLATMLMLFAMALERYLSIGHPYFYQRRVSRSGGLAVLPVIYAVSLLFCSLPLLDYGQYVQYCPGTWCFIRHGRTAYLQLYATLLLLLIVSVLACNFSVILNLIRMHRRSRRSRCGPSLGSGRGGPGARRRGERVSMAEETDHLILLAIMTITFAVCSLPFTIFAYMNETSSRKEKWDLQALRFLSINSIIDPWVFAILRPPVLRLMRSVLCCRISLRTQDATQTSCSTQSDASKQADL

SMILES | Ki [nM]
O=C(c1ccc(Cl)cc1)N1CC(COc2ccc(-c3ccc(Cl)cn3)cc2)(C(=O)O)C1 [Example 5] | 1.9
O=C(c1ccc(Cl)cc1)N1CC(COc2ccc(-c3ccccc3)cc2)(C(=O)O)C1 [Example 17] | 19.5
Cc1nc2ccc(OCC3(C(=O)O)CN(C(=O)c4ccc(F)cc4)C3)cc2s1 [Example 30] | 206
COc1ccc2cc(OCC3(C(=O)NS(C)(=O)=O)CN(C(=O)c4ccc(F)cc4)C3)ccc2c1 [Example 50, 1-(4-Fluorobenzoyl)-3-{[(6-methoxy-2-naphthyl)oxy]methyl}-N-(methylsulfonyl)azetidine-3-carboxamide] | 776
COc1ccc2cc(OCC3(C(=O)O)CN(C(=O)Nc4ccccc4F)C3)ccc2c1 [Example 66] | 102
